Reference: patent US20050070603A1, “Use of glycerides to alleviate symptoms of digestive disorders” (priority 2003, published 2005)

Test system: Irritable Bowel Syndrome symptoms (pain associated with intestinal gas, bloating and constipation)
Test: Case report: patient suffering from IBS taking MCT orally
Type: in vivo, human
Method: Over a period of 8 weeks, the patient increased the dose of MCT to approx. 15 mL (in approx. 240 mL of soymilk) per day to achieve complete symptomatic relief from IBS.

Q: Which results are given for Caprylic triglyceride [Neobee 895]?
A: change in HDL, LDL and triglyceride levels (after 10 months of use of MCT): no noticeable change; adverse effects on continued use (continued use, approx. 1 year): without any adverse effects; continued relief from IBS symptoms (continued use, approx. 1 year): complete relief from the IBS symptoms; improvement of IBS symptoms (initially, one teaspoon (approx. 5 mL) MCT as emulsion in soymilk (approx. 240 mL) per day, one patient): some improvement; relief of IBS symptoms (one tablespoon (approx. 15 mL) MCT per day, oral, in approx. 240 mL soymilk, dose increased over 8 weeks, one patient): complete relief of the symptoms
